The target in test [1] is T1, full-length MALT1 protein His-MALT1(1-824) (Homo sapiens, UniProt Q9UDY8).
T1 construct: full-length MALT1 protein His-MALT1(1-824); His (N); made in house; host or cells: baculovirus-infected insect cells
T1 sequence (Q9UDY8 1-824): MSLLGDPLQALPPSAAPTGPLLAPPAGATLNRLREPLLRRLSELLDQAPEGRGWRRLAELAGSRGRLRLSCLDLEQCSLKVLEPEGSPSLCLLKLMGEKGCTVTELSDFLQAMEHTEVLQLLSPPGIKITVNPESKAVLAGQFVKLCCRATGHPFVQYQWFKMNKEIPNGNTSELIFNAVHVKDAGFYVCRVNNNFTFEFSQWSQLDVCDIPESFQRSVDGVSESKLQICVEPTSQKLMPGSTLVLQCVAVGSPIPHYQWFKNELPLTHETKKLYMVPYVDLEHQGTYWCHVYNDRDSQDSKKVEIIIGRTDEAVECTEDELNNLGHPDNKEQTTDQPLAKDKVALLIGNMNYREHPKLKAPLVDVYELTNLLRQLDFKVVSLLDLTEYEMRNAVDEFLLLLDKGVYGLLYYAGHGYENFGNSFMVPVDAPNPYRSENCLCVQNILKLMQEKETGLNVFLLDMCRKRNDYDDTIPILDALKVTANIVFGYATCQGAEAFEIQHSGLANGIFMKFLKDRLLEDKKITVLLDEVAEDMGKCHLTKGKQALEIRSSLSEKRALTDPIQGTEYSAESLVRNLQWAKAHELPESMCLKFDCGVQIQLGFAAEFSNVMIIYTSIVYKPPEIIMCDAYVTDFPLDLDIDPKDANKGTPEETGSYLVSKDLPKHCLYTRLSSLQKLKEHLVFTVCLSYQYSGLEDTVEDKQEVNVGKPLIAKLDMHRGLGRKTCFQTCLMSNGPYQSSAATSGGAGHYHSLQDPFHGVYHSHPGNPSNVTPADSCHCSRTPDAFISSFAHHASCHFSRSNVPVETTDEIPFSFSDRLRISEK
As to the kind of experiment: MALT1 protease assay, Assay 2 (1 nM MALT1, Ac-LRSR-AMC substrate). The conditions noted are these: 1 nM MALT1, 50 μM Ac-LRSR-AMC, 2 h pre-incubation, 8 hr incubation at RT. Type of test: biochemical. An outline of the steps:
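Compounds (0.1% DMSO final) sat 2 h at RT with insect-cell-expressed His-MALT1(1-824), in 50 mM Tris pH 7.5, 600 mM sodium citrate, 1 mM DTT, 1 mM EDTA, 0.05% BSA. Cleavage of 50 μM Ac-LRSR-AMC (Km ~100 μM) ran 8 h at RT, read as AMC fluorescence. IC50 and Hill coefficient fitted to % remaining activity.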

The subject of test [2] is IL10 secretion in OCI-LY10 cells. Kind of test: Human IL10 secretion assay, Assay 2 (MSD). Format: cell-based. The conditions noted are these: 24 h incubation, Meso Scale Discovery, read-out: IL-10 Secretion IC50 [nM] Assay 2. As to the method:
IL10 is one of the cytokines that are regulated via activation of NF-kB signaling. For example, in ABC-DLBCL cell lines, the activated NF-kB signaling leads to increased IL10 secretion. Inhibition of NF-kB signaling has been shown leading to decreased IL10 secretion.
Assay 2: OCI-LY10 cells were seeded in IMEM supplemented with 20% fetal bovine serum at 4.8×10^5 cells per 160 μL per well in 96-well V-bottom cell culture plates (corning, 3894), treated with 120 nL of 3-fold serial compound dilutions, starting at 4 mM. The final vehicle concentration was 0.075% DMSO in all wells. After a 24 h incubation, human IL-10 precoated plates (Meso Scale Discovery) were washed 3 times with PBST, and 50 μL culture medium was aspirated into the MSD plate and incubated at 4° C. overnight. The supernatant was then discarded, and the wells were washed 3 times with PB ST. SULFO-TAG Anti-human IL-10 Antibody (50×) was diluted 50-fold according to the Meso Scale Protocol, then 25 μL of SULFO-TAG Anti-human IL-10 Antibody (1×) was added. After 2 h of incubation at RT, the supernatant was discarded, and the well was washed 3 times with PBST. 2×read buffer was added and the signal was read on an MSD Sector S600. The effect of a particular compound on IL10 secretion is shown relative to the effect of DMSO; set as 100%. IC50 values (nM) were determined using 4-parametric curve-fitting.

Where two headings read alike, the source gives them in different places.

As usually defined, the IC50 is the midpoint of a concentration-inhibition curve.

Consider `CC1(C)CC(C(=O)Nc2cnc(-n3nccn3)c(C#N)c2)c2cnc3cc(F)nn3c21` (single isomer, unassigned) [Example 89, N-(5-cyano-6-(2H-1,2,3-triazol-2-yl)pyridin-3-yl)-2-fluoro-8,8-dimethyl-7,8-dihydro-6H-cyclopenta[e]pyrazolo[1,5-a]pyrimidine-6-carboxamide], for which the results for the IC50 in test [1] and in test [2] (Homo sapiens) were less than 10 nM and 100 to 1000 nM, respectively.

In the case of `CC1(C)C[C@H](C(=O)Nc2cnc(-n3nccn3)c(C(F)(F)F)c2)c2cnc3cc(Cl)nn3c21` (single isomer, unassigned) [Example 44, N-(6-(2H-1,2,3-triazol-2-yl)-5˜(trifluoromethyl)pyridin-3-yl)-2-chloro-8,8-dimethyl-7,8-dihydro-6H-cyclopenta[e]pyrazolo[1,5-a]pyrimidine-6-carboxamide], the IC50 is less than 10 nM in test [1] and 100 to 1000 nM in test [2] (Homo sapiens).

Take `C[C@]1(C(F)(F)F)C[C@H](C(=O)Nc2cnc(-n3nccn3)c(C(F)F)c2)c2cnc3cc(Cl)nn3c21` (single isomer, unassigned) [Example 66, 2-chloro-N-(5-(difluoromethyl)-6-(2H-1,2,3-triazol-2-yl)pyridin-3-yl)-8-methyl-8-(trifluoromethyl)-7,8-dihydro-6H-cyclopenta[e]pyrazolo[1,5-a]pyrimidine-6-carboxamide]: the IC50 lay within 10 to 100 nM in test [1] and 100 to 1000 nM in test [2] (Homo sapiens).

Regarding `CC1(C)CC(C(=O)Nc2cnc(OC(F)F)c(Cl)c2)c2cnc3cc(Cl)nn3c21` (single isomer, unassigned) [Example 68, 2-chloro-N-(5-chloro-6-(difluoromethoxy)pyridin-3-yl)-8,8-dimethyl-7,8-dihydro-6H-cyclopenta[e]pyrazolo[1,5-a]pyrimidine-6-carboxamide], the IC50 in test [1] is less than 10 nM; in test [2] (Homo sapiens), 100 to 1000 nM.

As to `CC1(C)CC(C(=O)Nc2cnc(OC3CC3)c(C#N)c2)c2cnc3cc(F)nn3c21` (single isomer, unassigned) [Example 81, N-(5-cyano-6-cyclopropoxypyridin-3-yl)-2-fluoro-8,8-dimethyl-7,8-dihydro-6H-cyclopenta[e]pyrazolo[1,5-a]pyrimidine-6-carboxamide], the IC50 in test [1] was in the range of 10 to 100 nM; in test [2] (Homo sapiens), 100 to 1000 nM.

For the molecule `C[C@@]1(C(F)(F)F)C[C@H](C(=O)Nc2cnc(-n3nccn3)c(C(F)(F)F)c2)c2cnc3cc(Cl)nn3c21` (single isomer, unassigned) [Example 56, N-(6-(2H-1,2,3-triazol-2-yl)-5˜(trifluoromethyl)pyridin-3-yl)-2-chloro-8-methyl-8-(trifluoromethyl)-7,8-dihydro-6H-cyclopenta[e]pyrazolo[1,5-a]pyrimidine-6-carboxamide], the IC50 in test [1] was less than 10 nM; in test [2], 100 to 1000 nM.

Regarding `CC1(C)CC(C(=O)Nc2cnc(-n3nccn3)c(C#N)c2)c2cnc3cc(Cl)nn3c21` (single isomer, unassigned) [Example 107, 2-chloro-N-(5-cyano-6-(2H-1,2,3-triazol-2-yl)pyridin-3-yl)-8,8-dimethyl-7,8-dihydro-6H-cyclopenta[e]pyrazolo[1,5-a]pyrimidine-6-carboxamide], the results for the IC50 in test [1] and in test [2] (Homo sapiens) were less than 10 nM and 10 to 100 nM, respectively.

Take `CC1(C)CC(C(=O)Nc2cnc(OC(F)F)c(C#N)c2)c2cnc3cc(F)nn3c21` (single isomer, unassigned) [Example 84, N-(5-cyano-6-(difluoromethoxy)pyridin-3-yl)-2-fluoro-8,8-dimethyl-7,8-dihydro-6H-cyclopenta[e]pyrazolo[1,5-a]pyrimidine-6-carboxamide]: the IC50 is less than 10 nM in test [1] and 10 to 100 nM in test [2] (Homo sapiens).

In the case of `C[C@H](O)c1cnn(-c2ncc(NC(=O)[C@H]3CC(C)(C)c4c3cnc3cc(Cl)nn43)cc2Cl)n1` (single isomer, unassigned) [Example 49, 2-chloro-N-(5-chloro-6-(4-(1-hydroxyethyl)-2H-1,2,3-triazol-2-yl)pyridin-3-yl)-8,8-dimethyl-7,8-dihydro-6H-cyclopenta[e]pyrazolo[1,5-a]pyrimidine-6-carboxamide], the IC50 in test [1] is less than 10 nM; in test [2] (Homo sapiens), 100 to 1000 nM.

(Values after US12667572B2, “Tricyclic compounds useful in the treatment of cancer, autoimmune and inflammatory disorders” (SCHRÖDINGER, INC., priority 2021, dated 2026).)
